What was measured:
U937 xenograft [1] = experiment: U937 xenografts in nude mice, oral administration; settings: oral gavage daily 15 days; K145 50 mg/kg, tamibarotene 20 mg/kg
Procedure: BALB/c-nu mice (n=7) with palpable U937 xenograft were treated daily with vehicle, tamibarotene (20 mg/kg), or K145 (50 mg/kg) for 15 days by oral gavage. After treatment, animals were sacrificed and tumors were removed, weighed and images were taken. […] Data are expressed as mean value±SEM. *P<0.05 compared to control group.
In this experiment, K145 was given at 50 mg/kg by oral gavage daily for 15 days and tumor volume and animal weights were measured every other day. Again, tamibarotene (20 mg/kg) was used as positive control.

U937 xenograft [2] = experiment: U937 xenografts in nude mice, i.p. administration; type: in vivo, BALB/c-nu mice; settings: 15 mg/kg daily i.p.
Procedure: D) Body weights of mice throughout treatment. Data are expressed as mean value±SD. *P<0.05 compared to control group.
Female nude mice (BALB/c-nu, n=7) were inoculated with 3×10^7 U937 cells subcutaneously in the right flank. After 7 days of implant of U937 cells, mice were treated daily with Vehicle (control), or Tamibarotene (15 mg/Kg, positive control), or Formula III (K145) (15 mg/Kg) by i.p. administration. Tumor size was measured every other day.

[3] = tested on: human leukemia U937 cells; experiment: Cell viability assay in human leukemia U937 cells; type: cell-based; settings: Homo sapiens, U-937; 24 hrs treatment, MTT assay; read-out: IC50 ± SEM, inhibition of U937 cell proliferation
Procedure: Cells were cultured at a density of 5×10^4 (U937) or 1×10^4 (PC-3, DU145, M12, HT29) cells per well in flat bottomed 96-well plates and treated with various concentrations of test compound at 37° C. (5% CO2). After 24 h, 20 μL of CellTiter 96® Aqueous One Solution Reagent (Promega, Madison, Wis.) was added to each well according to the manufacturer's instructions. After 1 hour, the cell viability was determined by measuring the absorbance at 490 nm using a micro-plate reader.

SphK2 = biological target: T1, SphK2 (Homo sapiens, UniProt Q9NRA0); experiment: SphK2 activity assay (sphingosine substrate, with kinetic study); type: biochemical; settings: relative activity vs no inhibitor; compounds at 10 μM (FIGS. 1, 3, 5)
T1 sequence (Q9NRA0 1-654): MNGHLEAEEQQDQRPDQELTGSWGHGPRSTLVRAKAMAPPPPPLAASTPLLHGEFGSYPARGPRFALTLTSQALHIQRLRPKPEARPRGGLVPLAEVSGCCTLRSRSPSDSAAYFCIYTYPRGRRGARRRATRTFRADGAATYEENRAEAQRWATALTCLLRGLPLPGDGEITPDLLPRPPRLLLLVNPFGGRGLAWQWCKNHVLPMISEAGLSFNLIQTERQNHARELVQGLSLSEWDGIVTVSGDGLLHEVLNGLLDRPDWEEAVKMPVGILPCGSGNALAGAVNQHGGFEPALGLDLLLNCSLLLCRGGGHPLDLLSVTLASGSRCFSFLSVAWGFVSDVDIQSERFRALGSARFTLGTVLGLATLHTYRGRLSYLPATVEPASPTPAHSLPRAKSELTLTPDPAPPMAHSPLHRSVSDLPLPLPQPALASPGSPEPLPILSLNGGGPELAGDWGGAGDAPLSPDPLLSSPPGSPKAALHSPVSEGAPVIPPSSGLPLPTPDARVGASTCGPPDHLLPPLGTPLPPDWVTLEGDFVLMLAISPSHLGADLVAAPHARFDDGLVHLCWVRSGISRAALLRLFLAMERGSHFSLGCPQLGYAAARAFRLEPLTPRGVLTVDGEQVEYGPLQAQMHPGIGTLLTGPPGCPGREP

SphK1 = SphK1 (Homo sapiens, UniProt Q9NYA1); experiment: SphK1 activity assay; type: biochemical; settings: relative activity vs no inhibitor; compounds at 10 μM (FIGS. 1, 4, 6)
SphK1, sequence (Q9NYA1 whole entry, species assumed): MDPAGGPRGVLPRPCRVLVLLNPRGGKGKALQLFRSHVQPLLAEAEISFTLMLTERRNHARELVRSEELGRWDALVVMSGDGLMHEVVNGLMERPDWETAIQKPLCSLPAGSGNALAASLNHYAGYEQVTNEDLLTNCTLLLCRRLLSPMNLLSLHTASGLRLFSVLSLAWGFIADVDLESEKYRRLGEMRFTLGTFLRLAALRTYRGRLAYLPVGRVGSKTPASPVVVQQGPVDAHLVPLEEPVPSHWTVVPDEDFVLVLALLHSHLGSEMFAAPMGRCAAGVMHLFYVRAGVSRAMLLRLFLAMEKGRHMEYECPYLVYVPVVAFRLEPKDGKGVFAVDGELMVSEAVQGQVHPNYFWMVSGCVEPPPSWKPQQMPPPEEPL
Procedure: A) SphK1 and SphK2 activities were measured with 5 μM sphingosine in the absence or presence of the indicated concentrations of K145 or 10 μM DMS. Data are expressed as percentage SphK activity in the absence of inhibitor; B) Effect of K145 (10 μM) on activity of the indicated enzymes was tested by SelectScreen Kinase Profiling from Invitrogen. CaMK11β, Ca2+/calmodulin-dependent protein kinase II; CDK2, cyclin-dependent kinase 2; EGFR, Epidermal Growth Factor Receptor; Fyn, Fyn Kinase (p55); ERK2, extracellular signal-regulated kinase 2; ERK1, extracellular signal-regulated kinase 1; PKA, protein kinase A; PKCα, protein kinase C α; P13K, phosphatidylinositide 3-kinase. Data are expressed as percentage of control activity averaged from 2 independent experiments.
FIG. 3. SphK2 was incubated with indicated compounds at 10 μM, then the activity of SphK2 was determined. The data shown here is a relative activity of SphK2 compared to control (no inhibitor, column labeled Sph in the Figure). 96047 is a known SpK2 inhibitor. A5, B26, K25 and QLA13 are known compounds [Li et al. (2009) Bioorg Med Chem Lett 19: 6042-6046; Liu et al. (2012) Eur J Med Chem 47: 125-137] and were tested for purposes of comparison. “A” and “B” refer to different batches of a compound. FIG. 4. SphK1 was incubated with indicated compounds at 10 μM, then the activity of SphK1 was determined. The data shown here is a relative activity of SphK1 compared to control (no inhibitor, column labeled Sph in the Figure). 96091 is a known Spk1 inhibitor. A5, B26, K25 and QLA13 are as above for […]. “A” and “B” refer to different batches of a compound.
FIG. 6. SphK1 was incubated with indicated compounds at 10 μM, then the activity of SphK2 was determined. The data shown here is a relative activity of SphK2 compared to control (no inhibitor).

U937 cells = experiment: Cell apoptosis assay, annexin V/PI flow cytometry; type: cell-based, human; settings: 24 hrs treatment
Procedure: Apoptosis was measured by flow cytometry using annexin V/propidium iodide (PI) as staining reagent. […] The cells were then incubated with annexin V-fluorescein isothiocyanate (FITC) (BD PharMingen, San Diego, Calif.) and 5 μg/mL propidium iodide (PI), and incubated for 15 minutes at room temperature in the dark per the manufacturer's instructions. The samples were analyzed by flow cytometry using a Becton Dickinson FACScan (Becton Dickinson, San Jose, Calif.) within 1 hr to determine the percentage of cells displaying annexin V staining (early apoptosis) or both annexin V and PI staining (late apoptosis).

[4] = tested on: Raf/MEK/ERK and PI3K/Akt signaling pathways; experiment: Western blot analysis of ERK and Akt phosphorylation; type: cell-based; settings: Western blot, FIGS. 9 and 10
Procedure: Cells (5×10^5 per ml) were treated with various concentrations of test compound at 37° C. (5% CO2) for 3 hrs, then stimulated with TPA at a final concentration of 200 nM for 20 min. Samples from whole-cell pellets were prepared and 30 μg protein for each condition was subjected to SDS-PAGE, transferred onto a PVDF membrane, and blocked with 5% fat-free milk for 30 min. The membrane is probed with primary antibodies overnight at 4° C. followed by incubation with horseradish peroxidase-labeled anti-mouse IgG (1:5000, BD Bioscience). The immunoreactive bands are detected by chemilluminescence methods (Pierce) and visualized on Kodak Omat film. The following primary antibodies were used: phospho-p44/42 MAPK (ERK1/2, Thr202/Tyr204), p44/42 MAPK, phospho-p90RSK (Thr359/Ser363), RSK1/RSK2/RSK3 (Cell Signaling). Blots were reprobed with antibodies against α-tubulin to ensure equal loading and transfer of proteins.

Row | Compound | IC50 [3] | inhibition of SphK2 activity (in words) (SphK2) | inhibition of SphK1 activity (in words) (SphK1) | also measured
1 | CC1(C)CCC(C)(C)c2cc(NC(=O)c3ccc(C(=O)O)cc3)ccc21 [tamibarotene, reference compound] | – | – | – | TGI (tumor growth inhibition) (U937 xenograft [1]): 33.37%; TGI (tumor growth inhibition) (U937 xenograft [2]; 17 days): 50.4%; body weights of mice (U937 xenograft [2]; compared with vehicle): caused body weight decreases
2 | NCCN1C(=O)C(=CCCC23CC4CC(CC(C4)C2)C3)c2ccccc21 [S-II-73, 3-(3-(3r,5r,7r)-adamantan-1-yl)propylidene)-1-(2-aminoethyl)indolin-2-one] | – | inhibited SphK2 selectively | did not inhibit SphK1 or inhibited SphK1 to a lesser extent | –
3 | CCCCCCCOc1ccc(CC/C=C2/C(=O)N(CCN)c3ccccc32)cc1 [S-II-104] | – | inhibited SphK2 selectively | did not inhibit SphK1 or inhibited SphK1 to a lesser extent | –
4 | CCCCCCCOc1ccc(CC/C=C2\SC(=O)N(CCNC(=N)N)C2=O)cc1 [K11167] | – | inhibits both Sphk1 and Sphk2 | inhibits both Sphk1 and Sphk2 | –
5 | NCCN1C(=O)C(=CCCC2CCCCC2)c2ccccc21 [S-II-36, 1-(2-aminoethyl)-3-(3-cyclohexylpropylidene)indolin-2-one] | 2.7 ± 0.2 µM | – | – | –
6 | NCCN1C(=O)C(=CCCc2ccc(Cl)cc2)c2ccccc21 [S-II-60, 1-(2-aminoethyl)-3-(3-(4-chlorophenyl)propylidene)indolin-2-one] | 4 ± 0.7 µM | – | – | –
7 | CCCCCCCCCOc1ccc(CC/C=C2\SC(=O)N(CCN)C2=O)cc1 [KLII157] | – | inhibited SphK2 selectively | did not inhibit SphK1 or inhibited SphK1 to a lesser extent | –
8 | CCCCCCCCCCCOc1ccc(CC/C=C2\SC(=O)N(CCN)C2=O)cc1 [KLII123] | – | inhibited SphK2 selectively | did not inhibit SphK1 or inhibited SphK1 to a lesser extent | –
9 | COc1ccc(CCC=C2C(=O)N(CCN)c3ccccc32)cc1 [S-II-71, 1-(2-aminoethyl)-3-(3-(4-methoxyphenyl)propylidene)indolin-2-one] | 0.92 ± 0.04 µM | – | – | apoptotic effects in U937 cells (U937 cells): induced both early and late apoptotic effect; inhibition of Raf/MEK/ERK and PI3K/Akt signaling pathways [4]: inhibit
10 | CCCCOc1ccc(CCC=C2C(=O)N(CCN)c3ccccc32)cc1 [S-II-78, 1-(2-aminoethyl)-3-(3-(4-butoxyphenyl)propylidene)indolin-2-one] | 4.6 ± 0.8 µM | – | – | –

Now from value to molecule, other results behind:

Row | IC50 [3] | Compound | inhibition of SphK2 activity (in words) (SphK2) | inhibition of SphK1 activity (in words) (SphK1) | also measured
11 | 0.95 ± 0.11 µM | CCOc1ccc(CCC=C2C(=O)N(CCN)c3ccccc32)cc1 [S-II-102, 1-(2-aminoethyl)-3-(3-(4-ethoxyphenyl)propylidene)indolin-2-one] | – | – | –
12 | 2.128 ± 0.006 µM | CCCCCCCCC=C1C(=O)N(CCN)c2ccccc21 [S-II-129, 1-(2-aminoethyl)-3-nonylideneindolin-2-one] | – | – | –
13 | 1.16 ± 0.05 µM | NCCN1C(=O)C(=CCCC2CC2)c2ccccc21 [S-II-40, 1-(2-aminoethyl)-3-(3-cyclopropylpropylidene)indolin-2-one] | – | – | –
14 | 3.6 ± 0.2 µM | NCCN1C(=O)C(=CCCc2ccc([N+](=O)[O-])cc2)c2ccccc21 [S-II-61, 1-(2-aminoethyl)-3-(3-(4-nitrophenyl)propylidene)indolin-2-one] | – | – | –
15 | 2.69 ± 0.06 µM | NCCN1C(=O)C(=CCCc2ccc(F)cc2)c2ccccc21 [S-II-39, 1-(2-aminoethyl)-3-(3-(4-fluorophenyl)propylidene)indolin-2-one] | – | – | –
16 | 3.5 ± 0.3 µM | CCCCCCCOc1ccc(CCC=C2C(=O)N(CCN)c3ccccc32)cc1 [S-II-103, 1-(2-aminoethyl)-3-(3-(4-(heptyloxy)phenyl)propylidene)indolin-2-one] | inhibited SphK2 selectively | did not inhibit SphK1 or inhibited SphK1 to a lesser extent | apoptotic effects in U937 cells (U937 cells): mainly induced late apoptotic effects; inhibition of Raf/MEK/ERK and PI3K/Akt signaling pathways [4]: inhibit

Source: patent US9598384B2, “3-(2-amino-ethyl)-alkylidene)-thiazolidine-2,4-dione and 1-(2-amino-ethyl)-alkylidene-1,3-dihydro-indol-2-one derivatives as selective sphingosine kinase 2 inhibitors” (VIRGINIA COMMONWEALTH UNIVERSITY, priority 2012, dated 2017)
